According to patent publication EP0970697A1, “CERVICAL MATURING AGENT” (TORAY INDUSTRIES, INC., priority 1997, dated 1999):
Like-named read-outs stand apart in the source and are kept apart here.

What was measured:
cervical canal [1] = assay: Cervical ripening action (maximum tension and slope in extension of the extracted cervical canal after intravaginal administration); type: in vivo, Hartley mature guinea pigs; settings: 10µg, intravaginal administration three times, cervical canal extracted 4 hours after final administration; maximum tension and slope compared with the base administration group, Dunnett's method
Method: The cervical ripening actions of compounds of formula (I) were examined by using Hartley mature guinea pigs (nine-week-old, clean animals).
In order to compare with these compounds, the action of BPS was also tested. Experiment was carried out for 4 to 14 samples per group.
In the test, 100 µl of a test medicine or a base thereof was administered to the vagina at 9 o'clock and 17 o'clock, and 9 o'clock on the next day, and a guinea pig was dissected to extract the cervical canal 4 hours after the final administration. Then, the cervical canal was extended at a rate of 2 mm/min to measure tension generated in the tissue with time. As an index for cervical ripening, the maximum tension generated up to breakage of the tissue, and the slope obtained by dividing the maximum tension by the distance of extension were examined. It is thought that decreases in these values indicate ripening of the cervical canal. A test medicine was dissolved in phosphate buffered saline, and then mixed with 3% hydroxypropyl cellulose.
Figs. 1 and 2 show changes in the maximum tension and the slope, respectively, caused by the test medicines. (*: P < 0.05, **: P < 0.01, Dunnett's method, comparison with the base administration group).

cervical canal [2] = settings: mice; high dosage of 100 µg to 200 µg (about 2 to 4 mg per kg of weight) required; cited from earlier work

Structure (SMILES)	cervical ripening action (cervical canal [1])	cervical ripening action (cervical canal [2])
O=C(O)CCc1cccc2c1O[C@H]1C[C@@H](O)[C@H](/C=C/[C@@H](O)CC3CCCCC3)[C@@H]21 [Compound-3]	significant cervical ripening action	
CC#CCC(C)[C@H](O)/C=C/[C@@H]1[C@H]2c3cccc(CCCC(=O)O)c3O[C@H]2C[C@H]1O (mixture of isomers) [BPS, beraprost sodium, reference compound]	no cervical ripening action	exhibits a cervical ripening action
O=C(O)COc1cccc2c1OC1CC(O)C(C=CC(O)C3CCCCC3)C21 (centres unmarked) [Compound-2]	significant cervical ripening action	
O=C(O)COc1cccc2c1OC1CC(O)C(C=CC(O)C3CCCC3)C21 (centres unmarked) [Compound-1]	significant cervical ripening action	
